# Experiment: Stability (LTD samples) of CLF in plasma measured with the CLF ELISA
# Format: in vitro ADME, human
# Method: These conditions were used for all assays described in Phase 2a (above) and Phase 2b (below). See Appendix B and C for buffer and conjugate formulations respectively: • Add 25 μl/well of sample or standard (0-1000 ng/ml CLF in Buffer #24) to the wells of a streptavidin-coated microtitre plate (NovAssay, F2SAC). • Add 100 μl/well of fluorescein-biotin (Sigma B9431) at 20 ng/ml in Buffer #24+0.2% w/v ANS (Sigma 10417). • Add 100 μl/well of anti-fluorescein HRP (NovAssay, DV047/17-3) at 100 ng/ml in Buffer #24. • Incubate the plate for 30 minutes at room temperature. • Wash the plate 3 times with 800 μl/well Buffer #29 and tap the plate dry. • Add 100 μl/well of SureBlue Reserve TMB Substrate (KPL) and incubate the plate for 10 minutes at room temperature. • Stop the substrate reaction by adding 100 μl/well of 1M HCl and read the absorbance at 450 nm wavelength (ThermoFisher Scientific, Multiskan FC).
# The samples provided (LTD) included 8 “standards” (no details of their preparation were given, apart from the concentration which ranged from 0 to 100 ng/ml) and samples which were presumed to be stability samples (no details of their preparation were given). The stability work appeared to have been undertaken on 3 individual donor samples. Note, that 2 of the donor samples were heavily haemolysed.
smiles,measurement,setting,value
"CC(CCC(=O)NC(CCCCNC(=S)Nc1ccc(-c2c3ccc(=O)cc-3oc3cc(O)ccc23)c(C(=O)O)c1)C(=O)O)C1CCC2C3C(O)CC4CC(O)CCC4(C)C3CC(O)C12C [CLF, Cholyl-L-Lysyl-Fluorescein]",comparison of storage temperatures,"LTD plasma stability samples, 4° C. vs RT (~18-22° C.)",4 °C storage is slightly better than RT
same,percent loss of CLF,"LTD plasma stability samples, 24 hours",approximately 10%
same,percent loss of CLF,"PLASMA 2.4, T0",0%
same,percent loss of CLF,"PLASMA 2.4, T30",−11%
same,percent loss of CLF,"PLASMA 2.4, T120",−12%
same,percent loss of CLF,"PLASMA 2.4, T24 h",−11%
same,percent loss of CLF,"PLASMA 2.5.1, T0",0%
same,percent loss of CLF,"PLASMA 2.5.1, T30, 4° C.",3%
same,percent loss of CLF,"PLASMA 2.5.1, T30 RT",−5%
same,percent loss of CLF,"PLASMA 2.5.1, T120 4° C.",1%
same,percent loss of CLF,"PLASMA 2.5.1, T120 RT",−6%
same,percent loss of CLF,"PLASMA 2.5.1, T24 h 4° C.",−9%
same,percent loss of CLF,"PLASMA 2.5.1, T24 h RT",−13%
same,percent loss of CLF,"PLASMA 2.5.2, T0",0%
same,percent loss of CLF,"PLASMA 2.5.2, T30, 4° C.",10%
same,percent loss of CLF,"PLASMA 2.5.2, T30 RT",3%
same,percent loss of CLF,"PLASMA 2.5.2, T120 4° C.",10%
same,percent loss of CLF,"PLASMA 2.5.2, T120 RT",1%
same,percent loss of CLF,"PLASMA 2.5.2, T24 h 4° C.",−5%
same,percent loss of CLF,"PLASMA 2.5.2, T24 h RT",−14%
